Like-named read-outs stand apart in the source and are kept apart here.
Tests used:
Format in all cases: binding
[1] = molecular target: T1, HeLa cell extract proteins (Homo sapiens, UniProt P33993); conditions: protein MCM7; HeLa
T1 construct: endogenous in cells; host or cells: HeLa cell extract

[2] = molecular target: T2, HeLa cell extract proteins (Homo sapiens, UniProt Q9H479); conditions: HeLa
T2 construct: endogenous in cells; host or cells: HeLa cell extract
T2 sequence (Q9H479 1-309): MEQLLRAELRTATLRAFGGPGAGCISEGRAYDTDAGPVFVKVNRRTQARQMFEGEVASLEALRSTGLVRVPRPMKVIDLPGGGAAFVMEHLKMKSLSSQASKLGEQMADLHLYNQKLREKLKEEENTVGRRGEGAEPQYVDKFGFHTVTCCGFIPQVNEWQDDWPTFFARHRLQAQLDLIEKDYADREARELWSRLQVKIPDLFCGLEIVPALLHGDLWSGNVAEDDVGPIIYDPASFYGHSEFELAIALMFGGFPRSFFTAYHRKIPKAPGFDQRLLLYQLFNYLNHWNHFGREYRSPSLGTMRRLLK

[3] = molecular target: T3, HeLa cell extract proteins (Homo sapiens, UniProt Q9NX63); conditions: HeLa
T3 construct: endogenous in cells; host or cells: HeLa cell extract
T3 sequence (Q9NX63 1-227): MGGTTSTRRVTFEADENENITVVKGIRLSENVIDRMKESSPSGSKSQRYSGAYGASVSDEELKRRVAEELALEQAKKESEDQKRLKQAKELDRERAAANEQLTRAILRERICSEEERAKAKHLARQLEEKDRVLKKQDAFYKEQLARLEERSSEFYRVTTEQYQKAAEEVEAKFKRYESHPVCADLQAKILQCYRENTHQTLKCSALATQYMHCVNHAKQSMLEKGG

[4] = molecular target: T4, HeLa cell extract proteins (Homo sapiens, UniProt Q13618); conditions: HeLa
T4 construct: endogenous in cells; host or cells: HeLa cell extract

[5] = molecular target: T5, HeLa cell extract proteins (Homo sapiens, UniProt Q9H903); conditions: HeLa; protein MTHFD2L
T5 construct: endogenous in cells; host or cells: HeLa cell extract
T5 sequence (Q9H903 1-347): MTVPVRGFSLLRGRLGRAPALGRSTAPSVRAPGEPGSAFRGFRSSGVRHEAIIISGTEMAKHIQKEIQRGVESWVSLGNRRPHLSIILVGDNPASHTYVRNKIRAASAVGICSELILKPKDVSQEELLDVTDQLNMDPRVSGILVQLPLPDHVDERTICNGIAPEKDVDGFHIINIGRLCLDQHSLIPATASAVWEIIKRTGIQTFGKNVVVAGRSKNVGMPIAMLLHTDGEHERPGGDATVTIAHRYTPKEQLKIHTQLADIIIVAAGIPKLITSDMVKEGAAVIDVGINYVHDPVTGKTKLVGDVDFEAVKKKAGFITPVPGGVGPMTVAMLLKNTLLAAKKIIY

[6] = molecular target: T6, HeLa cell extract proteins (Homo sapiens, UniProt Q969S8); conditions: HeLa
T6 construct: endogenous in cells; host or cells: HeLa cell extract
T6 sequence (Q969S8 1-669): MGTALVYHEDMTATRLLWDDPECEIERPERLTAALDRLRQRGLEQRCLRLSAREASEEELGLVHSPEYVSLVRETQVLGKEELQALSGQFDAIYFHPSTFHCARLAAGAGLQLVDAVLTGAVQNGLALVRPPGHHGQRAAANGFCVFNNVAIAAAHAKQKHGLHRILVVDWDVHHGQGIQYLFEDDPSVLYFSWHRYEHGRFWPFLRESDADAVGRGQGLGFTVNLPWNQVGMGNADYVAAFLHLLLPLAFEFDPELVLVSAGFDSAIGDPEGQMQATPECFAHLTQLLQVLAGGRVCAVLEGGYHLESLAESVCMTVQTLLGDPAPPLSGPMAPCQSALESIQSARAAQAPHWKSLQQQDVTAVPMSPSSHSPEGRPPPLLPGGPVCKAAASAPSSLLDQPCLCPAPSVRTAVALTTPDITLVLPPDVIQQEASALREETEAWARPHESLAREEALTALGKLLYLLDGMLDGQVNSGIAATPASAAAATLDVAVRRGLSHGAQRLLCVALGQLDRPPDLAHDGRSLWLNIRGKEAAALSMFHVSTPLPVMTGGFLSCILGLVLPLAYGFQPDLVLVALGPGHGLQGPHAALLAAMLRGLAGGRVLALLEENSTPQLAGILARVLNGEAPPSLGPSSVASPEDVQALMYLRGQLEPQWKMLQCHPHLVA

[7] = test system: HeLa cell extract proteins
[8] = molecular target: T7, HeLa cell extract proteins (Homo sapiens, UniProt P50991); conditions: protein CCT4; HeLa
T7 construct: endogenous in cells; host or cells: HeLa cell extract
T7 sequence (P50991 1-539): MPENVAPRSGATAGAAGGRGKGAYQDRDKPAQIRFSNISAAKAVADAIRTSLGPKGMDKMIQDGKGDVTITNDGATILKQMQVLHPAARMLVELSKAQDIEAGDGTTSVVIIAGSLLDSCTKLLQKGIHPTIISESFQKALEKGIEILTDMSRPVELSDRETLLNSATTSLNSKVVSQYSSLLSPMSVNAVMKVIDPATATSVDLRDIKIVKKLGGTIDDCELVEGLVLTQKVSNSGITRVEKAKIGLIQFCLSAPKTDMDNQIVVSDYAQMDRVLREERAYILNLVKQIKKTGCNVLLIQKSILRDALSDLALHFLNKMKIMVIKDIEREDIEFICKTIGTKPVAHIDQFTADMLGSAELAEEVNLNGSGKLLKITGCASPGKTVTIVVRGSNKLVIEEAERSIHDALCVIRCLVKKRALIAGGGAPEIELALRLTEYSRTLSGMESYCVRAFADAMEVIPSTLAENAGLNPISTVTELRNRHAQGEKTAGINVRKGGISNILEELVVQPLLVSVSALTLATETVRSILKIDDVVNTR

[9] = molecular target: T8, HeLa cell extract proteins (Homo sapiens, UniProt Q00839)
T8 construct: endogenous in cells; host or cells: HeLa cell extract

[10] = HeLa; protein A8MV93_HUMAN (SIMILAR TO CYTOCHROME C.)
[11] = HeLa; protein CTNNA1 (ISOFORM 2 OF CATENIN ALPHA-1.)
[12] = HeLa; protein EIF5A (ISOFORM 2 OF EUKARYOTIC TRANSLATION INITIATION FACTOR 5A-1.)
[13] = HeLa; protein NME1-NME2 (NUCLEOSIDE DIPHOSPHATE KINASE.)
[14] = protein FN3K (FRUCTOSAMINE-3-KINASE)
[15] = HeLa; captured protein LOC442497
[16] = HeLa; protein ABCB7 (ISOFORM 2 OF ATP-BINDING CASSETTE SUB-FAMILY B MEMBER 7, MIT[…])
[17] = HeLa; protein ASAH1 (N-ACYLSPHINGOSINE AMIDOHYDROLASE (ACID CERAMIDASE) 1 ISOFORM B)
[18] = HeLa; protein MYL6 (ISOFORM SMOOTH MUSCLE OF MYOSIN LIGHT POLYPEPTIDE 6)
[19] = HeLa; protein PSMA1 (ISOFORM LONG OF […] ALPHA TYPE 1)
[20] = HeLa; protein PSME1 ([…] SUBUNIT 1 ISOFORM 2)

T8 sequence (Q00839 whole entry): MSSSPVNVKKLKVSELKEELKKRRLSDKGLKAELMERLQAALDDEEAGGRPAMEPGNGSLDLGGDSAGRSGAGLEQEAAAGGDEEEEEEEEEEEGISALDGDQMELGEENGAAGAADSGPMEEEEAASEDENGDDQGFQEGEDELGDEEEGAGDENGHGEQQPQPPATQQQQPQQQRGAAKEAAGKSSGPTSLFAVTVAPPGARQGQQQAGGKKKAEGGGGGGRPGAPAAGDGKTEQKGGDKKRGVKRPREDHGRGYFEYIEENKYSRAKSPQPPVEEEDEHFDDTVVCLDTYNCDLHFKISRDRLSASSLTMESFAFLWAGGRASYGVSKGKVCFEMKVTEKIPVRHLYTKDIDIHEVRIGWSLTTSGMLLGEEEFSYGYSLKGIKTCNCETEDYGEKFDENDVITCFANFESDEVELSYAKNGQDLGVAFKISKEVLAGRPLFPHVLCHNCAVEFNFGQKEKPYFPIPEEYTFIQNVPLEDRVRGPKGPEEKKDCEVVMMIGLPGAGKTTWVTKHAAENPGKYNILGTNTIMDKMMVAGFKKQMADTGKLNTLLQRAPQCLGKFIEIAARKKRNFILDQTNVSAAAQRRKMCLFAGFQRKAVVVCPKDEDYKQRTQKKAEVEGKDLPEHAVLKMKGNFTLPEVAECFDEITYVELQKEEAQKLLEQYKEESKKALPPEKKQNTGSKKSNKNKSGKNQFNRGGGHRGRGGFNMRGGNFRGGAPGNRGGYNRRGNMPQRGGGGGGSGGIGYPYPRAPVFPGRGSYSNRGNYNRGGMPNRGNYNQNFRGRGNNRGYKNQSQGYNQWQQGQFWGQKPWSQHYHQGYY
T4 sequence (Q13618 whole entry): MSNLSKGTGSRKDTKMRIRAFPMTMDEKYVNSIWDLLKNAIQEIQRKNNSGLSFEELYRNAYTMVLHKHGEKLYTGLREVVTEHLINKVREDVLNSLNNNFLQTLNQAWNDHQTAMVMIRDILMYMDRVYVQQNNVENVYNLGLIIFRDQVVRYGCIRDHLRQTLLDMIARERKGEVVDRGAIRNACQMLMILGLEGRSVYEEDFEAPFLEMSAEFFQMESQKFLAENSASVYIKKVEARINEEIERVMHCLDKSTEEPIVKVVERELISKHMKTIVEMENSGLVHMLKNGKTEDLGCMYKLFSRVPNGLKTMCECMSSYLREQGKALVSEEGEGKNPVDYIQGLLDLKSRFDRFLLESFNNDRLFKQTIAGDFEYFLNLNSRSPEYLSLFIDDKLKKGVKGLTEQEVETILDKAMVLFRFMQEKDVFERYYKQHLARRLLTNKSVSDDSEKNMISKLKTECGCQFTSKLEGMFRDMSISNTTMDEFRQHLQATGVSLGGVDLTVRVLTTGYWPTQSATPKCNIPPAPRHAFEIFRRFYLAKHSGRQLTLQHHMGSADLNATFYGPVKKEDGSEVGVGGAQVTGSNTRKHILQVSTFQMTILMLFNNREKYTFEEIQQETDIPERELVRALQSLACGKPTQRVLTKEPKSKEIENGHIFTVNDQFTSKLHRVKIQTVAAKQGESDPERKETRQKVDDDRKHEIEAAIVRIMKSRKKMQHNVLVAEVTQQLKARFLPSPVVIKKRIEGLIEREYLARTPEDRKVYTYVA
T1 sequence (P33993 whole entry): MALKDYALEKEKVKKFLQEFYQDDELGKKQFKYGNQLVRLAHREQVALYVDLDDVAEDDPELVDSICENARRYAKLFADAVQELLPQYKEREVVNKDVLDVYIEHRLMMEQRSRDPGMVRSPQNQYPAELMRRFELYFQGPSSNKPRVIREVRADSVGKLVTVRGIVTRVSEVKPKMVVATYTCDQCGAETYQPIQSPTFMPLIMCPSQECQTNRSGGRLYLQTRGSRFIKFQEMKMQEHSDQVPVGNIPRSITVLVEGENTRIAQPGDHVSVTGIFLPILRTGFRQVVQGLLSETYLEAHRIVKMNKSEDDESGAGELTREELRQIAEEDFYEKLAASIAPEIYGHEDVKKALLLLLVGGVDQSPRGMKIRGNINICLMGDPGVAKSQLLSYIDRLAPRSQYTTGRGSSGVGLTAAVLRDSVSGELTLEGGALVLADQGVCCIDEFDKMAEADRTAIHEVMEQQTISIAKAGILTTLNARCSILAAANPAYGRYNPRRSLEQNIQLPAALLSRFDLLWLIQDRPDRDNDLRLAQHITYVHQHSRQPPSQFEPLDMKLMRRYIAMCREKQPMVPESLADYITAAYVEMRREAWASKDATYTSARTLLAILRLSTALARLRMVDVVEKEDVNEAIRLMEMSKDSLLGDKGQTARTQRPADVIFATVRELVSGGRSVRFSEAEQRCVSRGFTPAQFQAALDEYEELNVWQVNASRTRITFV

| SMILES | fold changes relative to vehicle control [1] | fold changes relative to vehicle control ([2]; protein FN3K) | fold changes relative to vehicle control ([3]; captured protein CHCHD3) | fold changes relative to vehicle control ([4]; captured protein CUL3) | fold changes relative to vehicle control [5] | fold changes relative to vehicle control ([6]; captured protein HDAC10) | fold changes relative to vehicle control [7, 10] | fold changes relative to vehicle control [7, 11] | fold changes relative to vehicle control [7, 12] | fold changes relative to vehicle control ([7]; HeLa; protein LOC646960) | fold changes relative to vehicle control [7, 13] | fold changes relative to vehicle control ([7]; protein EIF1AP1; HeLa) | fold changes relative to vehicle control ([7]; protein LOC442497; HeLa) | fold changes relative to vehicle control ([7]; protein RPLP0-LIKE; HeLa) | fold changes relative to vehicle control [8] | fold changes relative to vehicle control ([9]; HeLa; protein HNRNPU) | fold changes relative to vehicle control [2, 14] | fold changes relative to vehicle control ([3]; protein CHCHD3) | fold changes relative to vehicle control ([4]; protein CUL3) | fold changes relative to vehicle control ([6]; protein HDAC10) | further results |
| --- | --- | --- | --- | --- | --- | --- | --- | --- | --- | --- | --- | --- | --- | --- | --- | --- | --- | --- | --- | --- | --- |
| CCCCCCOc1cccc(Cc2cnc(N)nc2N)c1 [compound 2] | 1.47 | 1.06 | 1.08 | 1.17 | 0.89 | 0.88 | 2.46 fold | 2.1 fold | 2.05 fold | 1.08 | 2.13 fold | 1.77 | 1.38 | 1.23 | 1.73 | 1.2 | – | – | – | – | fold changes relative to vehicle control ([7]; HeLa; protein LOC654188 (SIMILAR TO PEPTIDYLPROLYL ISOMERASE A-LIKE.)): 2.15 fold |
| NCCOCCOCC(=O)Nc1nc2ncc(CNc3ccc(C(=O)NC(CCC(=O)O)C(=O)O)cc3)nc2c(=O)[nH]1 (stereo not shown) [compound 6] | 1.16 | – | – | – | 0.97 | – | – | – | – | – | – | – | – | – | 1.14 | – | 0.94 | 1 | 0.97 | 0.82 | fold changes relative to vehicle control ([7]; HeLa; captured protein EIF1AP1): 1.27; fold changes relative to vehicle control [7, 15]: 1.13; fold changes relative to vehicle control [7, 16]: 1.25; fold changes relative to vehicle control [7, 17]: 1.17; fold changes relative to vehicle control ([7]; HeLa; protein GTPBP3 (ISOFORM 2 OF TRNA MO[…] GTPBP3, MIT[…])): 1.03; fold changes relative to vehicle control ([7]; HeLa; protein LOC654188): 1.3; fold changes relative to vehicle control [7, 18]: 1.7; fold changes relative to vehicle control ([7]; HeLa; protein NME1-NME2): 1.27; fold changes relative to vehicle control [7, 19]: 1.05; fold changes relative to vehicle control [7, 20]: 1.04; fold changes relative to vehicle control ([7]; HeLa; protein RPLP0-LIKE): 0.88; fold changes relative to vehicle control ([7]; protein HIST2H2BA; HeLa): 1.03; fold changes relative to vehicle control ([7]; protein LOC646960; HeLa): 1.05; fold changes relative to vehicle control ([9]; protein HNRNPU; HeLa): 1.18 |
| CCCCCCOc1ccc(Cc2cnc(N)nc2N)cc1 [compound 1] | 1.06 | 0.92 | 0.93 | 1.01 | 0.3 | 0.82 | 1.4 fold | 1.26 fold | 1.5 fold | 1.15 | 1.36 fold | 1.3 | 1.12 | 0.94 | 1.25 | 0.88 | – | – | – | – | fold changes relative to vehicle control ([7]; HeLa; protein LOC654188 (SIMILAR TO PEPT[…] A-LIKE.)): 1.34 fold |
| Nc1nc2c(c(=O)[nH]1)N(C=O)C(CNc1ccc(C(=O)N[C@@H](CCC(=O)O)C(=O)O)cc1)CN2 (stereo partly shown) [LEU, leucovorin] | 0.91 | – | – | – | 0.9 | – | – | – | – | – | – | – | – | – | 1 | – | 0.93 | 0.92 | 0.92 | 0.95 | fold changes relative to vehicle control ([7]; HeLa; captured protein EIF1AP1): 0.99; fold changes relative to vehicle control [7, 15]: 1.06; fold changes relative to vehicle control [7, 16]: 1.18; fold changes relative to vehicle control [7, 17]: 1.17; fold changes relative to vehicle control ([7]; HeLa; protein GTPBP3 (ISOFORM 2 OF TRNA MODIFICATION GTPASE GTPBP3, MITOCHONDRIAL PRECURSOR)): 0.27; fold changes relative to vehicle control ([7]; HeLa; protein LOC654188): 0.98; fold changes relative to vehicle control [7, 18]: 1.06; fold changes relative to vehicle control ([7]; HeLa; protein NME1-NME2): 0.99; fold changes relative to vehicle control [7, 19]: 1.18; fold changes relative to vehicle control [7, 20]: 1.03; fold changes relative to vehicle control ([7]; HeLa; protein RPLP0-LIKE): 0.86; fold changes relative to vehicle control ([7]; protein HIST2H2BA; HeLa): 0.92; fold changes relative to vehicle control ([7]; protein LOC646960; HeLa): 0.84; fold changes relative to vehicle control ([9]; protein HNRNPU; HeLa): 0.8 |

From article PMC6199744, “Development of Chemical Proteomics for the Folateome and Analysis of the Kinetoplastid Folateome” (ACS Infectious Diseases, 2018)
